The conditions of data set [1]: at 20 c; in water; cited from earlier work.
In the next data set the test system is rust. In words: Field spray of vanadyl citrate solution on an oats crop to control rust. Type of data set: in vivo. As to conditions: oats crop for stock feed, about 2 hectares, sprayed at approx. 150 mm height, approx. 7.5 grams of elemental vanadium per hectare; adjacent untreated crop failed to give any yield due to rust. How it is done: A solution containing vanadium in the form of vanadyl citrate was prepared. The solution was sprayed onto about 2 hectares of an oats crop for stock feed, that was in early stages of growth where the crop was approximately 150 mm in height. The spray was applied in a manner such that approximately 7.5 grams of elemental vanadium per hectare, was applied to the crop.

In the case of `[O]=[V](=[O])[O][V](=[O])=[O]` [Vanadium Pentoxide, vanadium pentoxide], the solubility in data set [1] is given as 0.8 g/100 ml.

On to `O=C([O-])CC(O)(CC(=O)[O-])C(=O)[O-].[O]=[V+2]` [vanadyl citrate], for which, in the data set on rust, the “crop yield (cuttings delivered) of treated crop” value is listed as “delivered three cuttings”.

Values taken from patent US20110135754A1, “CONTROL OF DISEASES IN CROPS” (priority 2008, published 2011).
